In patent US12545639B2, “3-substituted phenylamidine compounds, preparation and use thereof” (PI INDUSTRIES LTD., priority 2019, dated 2026):

Key:
[1] = system: Phakopsora pachyrhizi; experiment: Phakopsora pachyrhizi test in soybean, preventive, in vivo on plants; conditions: in Glycine max, read-out: Efficacy (% control), disease severity compared to the untreated check
[2] = system: Botrytis cinerea; experiment: Botrytis cinerea (gray mold) in vitro test, radial growth on potato dextrose agar; type: cell-based; conditions: 168 h, 300 ppm in potato dextrose agar, 22° C., 90% relative humidity, seven days, read-out: control compared to the untreated check (radial growth)
[3] = system: Alternaria solani; experiment: Alternaria solani (early blight of tomato/potato) in vitro test, radial growth on potato dextrose agar; type: cell-based; conditions: 168 h, 300 ppm in potato dextrose agar, 25° C., 60% relative humidity, seven days, read-out: control compared to the untreated check (radial growth)
[4] = system: Rhizoctonia solani; experiment: Rhizoctonia solani (rice sheath blight/potato black scurf) in vitro test, radial growth on potato dextrose agar; type: cell-based; conditions: 168 h, 300 ppm in potato dextrose agar, 25° C., 60% relative humidity, seven days, read-out: control compared to the untreated check (radial growth)
[5] = system: Fusarium culmorum; experiment: Fusarium culmorum (foot rot of cereals) in vitro test, radial growth on potato dextrose agar; type: cell-based; conditions: 168 h, 300 ppm in potato dextrose agar, 25° C., 60% relative humidity, seven days, read-out: control compared to the untreated check (radial growth)
Description: Compounds were dissolved in 0.3% dimethyl sulfoxide and then added to potato dextrose agar medium just prior to dispensing it into petri dishes. 5 mL medium with the compound in the desired concentration was dispensed into 60 mm sterile petri-plates. After solidification each plate was seeded with a 5 mm size mycelial disc taken from the periphery of an actively growing virulent culture plate. Plates were incubated in growth chambers at 25° C. temperature and 60% relative humidity for seven days and then the radial growth was measured and compared to that of the untreated control.

[6] = system: Pyricularia oryzae; experiment: microbe, parasite or virus in culture; type: cell-based; conditions: 168 h, read-out: control compared to the untreated check (radial growth)
[7] = system: Septoria lycopersici/Corynespora cassicola (CORYCA); experiment: Septoria lycopersici/Corynespora cassicola (CORYCA) (leaf spot of tomato) in vitro test, radial growth on potato dextrose agar; type: cell-based; conditions: 168 h, 300 ppm in potato dextrose agar, 25° C., 70% relative humidity, seven days, read-out: control compared to the untreated check (radial growth)
[8] = system: Colletotrichum capsici; experiment: Colletotrichum capsici (anthracnose) in vitro test, radial growth on potato dextrose agar; type: cell-based; conditions: Colletotrichum truncatum, 168 h; 300 ppm in potato dextrose agar; 25° C., 60% relative humidity, seven days; read-out: control compared to the untreated check (radial growth)

CCN(C)C=Nc1cc(Cl)cc(Cc2cc(C)c(F)c(C)c2)c1C [Compound 87, N′-(5-chloro-3-(4-fluoro-3,5-dimethylbenzyl)-2-methylphenyl)-N-ethyl-N-methylformimidamide]
≥ 70%: pest or weed control at 500 ppm [1] | inhibition of growth at 300 ppm [2] | inhibition of growth at 300 ppm [3] | inhibition of growth at 300 ppm [4] | inhibition of growth at 300 ppm [5] | inhibition of growth at 300 ppm [6]

CCN(C)C=Nc1cc(Cl)cc(Nc2cccc(Br)c2)c1C [Compound 164, N′-(3-((3-bromophenyl)amino)-5-chloro-2-methylphenyl)-N-ethyl-N-methylformimidamide]
≥ 70%: inhibition of growth at 300 ppm [2] | inhibition of growth at 300 ppm [3] | inhibition of growth at 300 ppm [4] | inhibition of growth at 300 ppm [5] | inhibition of growth at 300 ppm [6] | inhibition of growth at 300 ppm [7]

CCN(C)C=Nc1cc(F)cc(Cc2ccc(C(F)(F)F)cc2)c1C [Compound 188, N-ethyl-N′-(5-fluoro-2-methyl-3-(4-(trifluoromethyl)benzyl)phenyl)-N-methylformimidamide]
≥ 70%: pest or weed control at 500 ppm [1] | inhibition of growth at 300 ppm [2] | inhibition of growth at 300 ppm [3] | inhibition of growth at 300 ppm [4] | inhibition of growth at 300 ppm [5] | inhibition of growth at 300 ppm [6] | inhibition of growth at 300 ppm [7]

CCN(C)C=Nc1cc(OC)cc(Cc2cc(F)ccc2Cl)c1C [Compound 293, N′-(3-(2-chloro-5-fluorobenzyl)-5-methoxy-2-methylphenyl)-N-ethyl-N-methylformimidamide]
≥ 70%: inhibition of growth at 300 ppm [2] | inhibition of growth at 300 ppm [3] | inhibition of growth at 300 ppm [4] | inhibition of growth at 300 ppm [5] | inhibition of growth at 300 ppm [6] | inhibition of growth at 300 ppm [7]

CCN(C)C=Nc1cc(OC)cc(Cc2cccc(OC(F)(F)F)c2)c1C [Compound 305, N-ethyl-N′-(5-methoxy-2-methyl-3-(3-(trifluoromethoxy)benzyl)phenyl)-N-methylformimidamide]
≥ 70%: inhibition of growth at 300 ppm [2] | inhibition of growth at 300 ppm [3] | inhibition of growth at 300 ppm [4] | inhibition of growth at 300 ppm [5] | inhibition of growth at 300 ppm [6] | inhibition of growth at 300 ppm [7]

CCN(C)C=Nc1cc(OC)cc(Cc2ccccc2OC(F)(F)F)c1C [Compound 299, N-ethyl-N′-(5-methoxy-2-methyl-3-(2-(trifluoromethoxy)benzyl)phenyl)-N-methylformimidamide]
≥ 70%: pest or weed control at 500 ppm [1] | inhibition of growth at 300 ppm [2] | inhibition of growth at 300 ppm [3] | inhibition of growth at 300 ppm [4] | inhibition of growth at 300 ppm [5] | inhibition of growth at 300 ppm [6] | inhibition of growth at 300 ppm [7]

CCN(C)C=Nc1cc(OC)cc(Cc2ccccc2C(F)(F)F)c1C [Compound 307, N-ethyl-N′-(5-methoxy-2-methyl-3-(2-(trifluoromethyl)benzyl)phenyl)-N-methylformimidamide]
≥ 70%: inhibition of growth at 300 ppm [2] | inhibition of growth at 300 ppm [3] | inhibition of growth at 300 ppm [4] | inhibition of growth at 300 ppm [5] | inhibition of growth at 300 ppm [6] | inhibition of growth at 300 ppm [7]

CCN(C)C=Nc1cc(F)cc(Cc2ccccc2Cl)c1C [Compound 142, N′-(3-(2-chlorobenzyl)-5-fluoro-2-methylphenyl)-N-ethyl-N-methylformimidamide]
≥ 70%: inhibition of growth at 300 ppm [2] | inhibition of growth at 300 ppm [3] | inhibition of growth at 300 ppm [4] | inhibition of growth at 300 ppm [5] | inhibition of growth at 300 ppm [6] | inhibition of growth at 300 ppm [7]

CCN(C)C=Nc1cc(OC)cc(Cc2cccc(Cl)c2)c1C [Compound 264, N′-(3-(3-chlorobenzyl)-5-methoxy-2-methylphenyl)-N-ethyl-N-methylformimidamide]
≥ 70%: pest or weed control at 500 ppm [1] | inhibition of growth at 300 ppm [2] | inhibition of growth at 300 ppm [3] | inhibition of growth at 300 ppm [4] | inhibition of growth at 300 ppm [5] | inhibition of growth at 300 ppm [6] | inhibition of growth at 300 ppm [7]

CCN(C)C=Nc1cc(OC)cc(N(C)c2ccc(OC)c(F)c2)c1C [Compound 271, N-ethyl-N′-(3-((3-fluoro-4-methoxyphenyl)(methyl)amino)-5-methoxy-2-methylphenyl)-N-methylformimidamide]
≥ 70%: inhibition of growth at 300 ppm [3] | inhibition of growth at 300 ppm [5] | inhibition of growth at 300 ppm [6] | inhibition of growth at 300 ppm [7]

CCN(C)C=Nc1cc(OC)cc(Cc2ccc(F)c(F)c2)c1C [Compound 286, N′-(3-(3,4-difluorobenzyl)-5-methoxy-2-methylphenyl)-N-ethyl-N-methylformimidamide]
≥ 70%: pest or weed control at 500 ppm [1] | inhibition of growth at 300 ppm [2] | inhibition of growth at 300 ppm [3] | inhibition of growth at 300 ppm [4] | inhibition of growth at 300 ppm [5] | inhibition of growth at 300 ppm [6] | inhibition of growth at 300 ppm [7]

CCN(C)C=Nc1cc(OC)cc(Cc2ccccc2F)c1C [Compound 266, N-ethyl-N′-(3-(2-fluorobenzyl)-5-methoxy-2-methylphenyl)-N-methylformimidamide]
≥ 70%: pest or weed control at 500 ppm [1] | inhibition of growth at 300 ppm [3] | inhibition of growth at 300 ppm [4] | inhibition of growth at 300 ppm [5] | inhibition of growth at 300 ppm [6] | inhibition of growth at 300 ppm [7]

CCN(C)C=Nc1cc(OC)cc(Cc2cc(C)cc(F)c2)c1C [Compound 292, N-ethyl-N′-(3-(3-fluoro-5-methylbenzyl)-5-methoxy-2-methylphenyl)-N-methylformimidamide]
≥ 70%: inhibition of growth at 300 ppm [2] | inhibition of growth at 300 ppm [3] | inhibition of growth at 300 ppm [4] | inhibition of growth at 300 ppm [5] | inhibition of growth at 300 ppm [6] | inhibition of growth at 300 ppm [7]

CCN(C)C=Nc1cc(OC)cc(Cc2ccc(C(F)(F)F)cc2)c1C [Compound 295, N-ethyl-N′-(5-methoxy-2-methyl-3-(4-(trifluoromethyl)benzyl)phenyl)-N-methylformimidamide]
≥ 70%: pest or weed control at 500 ppm [1] | inhibition of growth at 300 ppm [2] | inhibition of growth at 300 ppm [3] | inhibition of growth at 300 ppm [4] | inhibition of growth at 300 ppm [5] | inhibition of growth at 300 ppm [6] | inhibition of growth at 300 ppm [7]

CCN(C)C=Nc1cc(C)cc(Nc2ccc(C)cc2)c1Cl [Compound 1, N′-(2-chloro-5-methyl-3-(p-tolylamino)phenyl)-N-ethyl-N-methylformimidamide]
≥ 70%: inhibition of growth at 300 ppm [8] | inhibition of growth at 300 ppm [3] | inhibition of growth at 300 ppm [4] | inhibition of growth at 300 ppm [5] | inhibition of growth at 300 ppm [6]

CCN(C)C=Nc1cc(OC)cc(Cc2ccccc2Cl)c1C [Compound 265, N′-(3-(2-chlorobenzyl)-5-methoxy-2-methylphenyl)-N-ethyl-N-methylformimidamide]
≥ 70%: inhibition of growth at 300 ppm [2] | inhibition of growth at 300 ppm [3] | inhibition of growth at 300 ppm [4] | inhibition of growth at 300 ppm [5] | inhibition of growth at 300 ppm [6] | inhibition of growth at 300 ppm [7]

CCN(C)C=Nc1cc(OC)cc(Cc2ccccc2Br)c1C [Compound 294, N′-(3-(2-bromobenzyl)-5-methoxy-2-methylphenyl)-N-ethyl-N-methylformimidamide]
≥ 70%: pest or weed control at 500 ppm [1] | inhibition of growth at 300 ppm [2] | inhibition of growth at 300 ppm [3] | inhibition of growth at 300 ppm [4] | inhibition of growth at 300 ppm [5] | inhibition of growth at 300 ppm [6] | inhibition of growth at 300 ppm [7]

CCN(C)C=Nc1cc(OC)cc(Cc2ccc(F)cc2)c1C [Compound 261, N-ethyl-N′-(3-(4-fluorobenzyl)-5-methoxy-2-methylphenyl)-N-methylformimidamide]
≥ 70%: pest or weed control at 500 ppm [1] | inhibition of growth at 300 ppm [2] | inhibition of growth at 300 ppm [3] | inhibition of growth at 300 ppm [4] | inhibition of growth at 300 ppm [5] | inhibition of growth at 300 ppm [6] | inhibition of growth at 300 ppm [7]

CCN(C)C=Nc1cc(OC)cc(Cc2ccccc2C)c1C [Compound 262, N-ethyl-N′-(5-methoxy-2-methyl-3-(2-methylbenzyl)phenyl)-N-methylformimidamide]
≥ 70%: pest or weed control at 500 ppm [1] | inhibition of growth at 300 ppm [2] | inhibition of growth at 300 ppm [3] | inhibition of growth at 300 ppm [4] | inhibition of growth at 300 ppm [5] | inhibition of growth at 300 ppm [6] | inhibition of growth at 300 ppm [7]

CCN(C)C=Nc1cc(Cl)cc(N(C)c2ncccn2)c1C [Compound 214, N′-(5-chloro-2-methyl-3-(methyl(pyrimidin-2-yl)amino)phenyl)-N-ethyl-N-methylformimidamide]
≥ 70%: pest or weed control at 500 ppm [1] | inhibition of growth at 300 ppm [3] | inhibition of growth at 300 ppm [4] | inhibition of growth at 300 ppm [5] | inhibition of growth at 300 ppm [6] | inhibition of growth at 300 ppm [7]
